Consider one compound from patent US20070191367A1, “3-SPIROINDOLIN-2-ONE DERIVATIVES, PREPARATION AND THERAPEUTIC USE THEREOF” (SANOFI-AVENTIS, priority 2004, published 2007).

This assay has as its target T1, recombinant human vasopressin V2 receptors (Homo sapiens, UniProt P30518).
T1 construct: expressed in transfected cells; host or cells: CHO cell line (plasma membranes)
The assay is described as follows: In vitro binding assay, [H3]-AVP displacement at vasopressin V2 receptors. The note with it: plasma membranes from tissues or CHO cell line; 3.5 nM [H3]-AVP; 45 minutes at 25° C.; read-out: IC50 (concentration of product that inhibits 50% of the specific binding). The procedure: The affinity of the compounds of the invention for vasopressin V2 receptors was measured in in vitro binding assays, as described in J. Pharmacol. Exp. Ther., (2002), 300, pp. 1122-1130.
Plasma membranes (approximately 20 μg/ml) originating from tissues or the CHO cell line expressing recombinant human vasopressin V2 receptors are incubated for 45 minutes at 25° C. in 200 μl of TRIS-HCl buffer (50 mM; pH 8.2) containing 2 mM of MgCl2, 1 mM of EDTA, 0.1% of BSA, 1 mg/ml of bacitracin and 3.5 nM of [H^3]-AVP. The reaction is stopped by filtration and washing over GF/B filters. The nonspecific binding is determined in the presence of 1 μM of AVP. The compounds of the invention, dissolved beforehand at the concentration of 10^−2 M in DMSO, are tested in a dilution range.
For each concentration, the results are expressed as percentage inhibition of specific binding. An IC50 (concentration of product that inhibits 50% of the specific binding) is determined for each of the products using the “RS1 binding” program (BBN Domain, Cambridge, Mass).

T1 sequence (P30518 whole entry): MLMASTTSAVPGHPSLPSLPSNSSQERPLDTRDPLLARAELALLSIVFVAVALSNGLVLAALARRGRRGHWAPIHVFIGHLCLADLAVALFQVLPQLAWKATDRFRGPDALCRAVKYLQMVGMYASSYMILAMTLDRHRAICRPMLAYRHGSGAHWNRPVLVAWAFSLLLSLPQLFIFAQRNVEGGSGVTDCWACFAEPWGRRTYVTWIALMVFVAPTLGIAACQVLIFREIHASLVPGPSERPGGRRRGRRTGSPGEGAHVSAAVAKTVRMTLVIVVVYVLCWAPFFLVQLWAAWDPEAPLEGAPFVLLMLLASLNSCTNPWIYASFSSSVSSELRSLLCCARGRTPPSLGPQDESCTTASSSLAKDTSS

With `CCOc1ccc2c(c1)C1(CCC(OCC(=O)N3CCOCC3)CC1)C(=O)N2S(=O)(=O)c1ccc(C(=O)NC(C)(C)C)cc1OC` (stereo not shown) [Example], the IC50 is approximately 7.3 nM.
